The source of these data is patent publication US11584747B2, “Substituted pyridopyrimidinonyl compounds useful as T cell activators” (BRISTOL-MYERS SQUIBB COMPANY, priority 2019, dated 2023).

Like-named read-outs stand apart in the source and are kept apart here.

One experiment addresses human DGKζ (Homo sapiens (Human), UniProt Q13574). Put plainly: DGKζ LIPGLO assay (extruded liposome substrate, ADP-Glo luminescence). The experiment is classed as biochemical. On the technique in general: ADP-Glo turns the ADP formed in a reaction into a luminescent signal.
For another experiment, the target named is human DGKα (Homo sapiens (Human), UniProt P23743). Put plainly: DGKα ADPGLO assay (detergent/lipid micelle substrate). The experiment is classed as biochemical. The protocol:
DGK Alpha ADPGLO (Truncated) IC50 (uM)
The detergent/lipid micelle was prepared by combining 15 g phosphatidylserine (Avanti 840035P) and 1 g diacylglycerol (8008110) and dissolving into 150 mL chloroform in a 2 L round bottom flask. Chloroform was removed under high vacuum by rotary evaporation. […] The lipid/detergent solution was split into 5 mL aliquots and stored at −80° C.

Experiment [1] concerns human venous whole blood (IFN-γ). Put plainly: Human whole blood IFN-γ assay. The experiment is classed as cell-based. On the procedure: Human venous whole blood (22.5 μL per well), obtained from healthy donors, was pre-treated with compounds for one hour at 37° C. in a humidified 95% air/5% CO2 incubator. The blood was stimulated with 2.5 μL anti-human CD3 and anti-CD28 mAb at a final concentration of 1 μg/mL each for 24 hours at 37° C. IFN-γ in the supernatants was measured using AlphLISA kit (Cat #AL217).

Where [2] appears, read: liposome assay, read-out: DGK zeta LIPGLO IC50.
[3] abbreviates: truncated DGK alpha, read-out: DGK alpha ADPGLO (Truncated) IC50.
Where [4] appears, read: whole blood, normalized to 3 μM reference compound as 100% activation, read-out: IFN-γ Whole Blood Normalized EC50.
Setting [5] is: liposome (LIPGLO) assay, read-out: DGK zeta (liposome assay) IC50.
Where [6] appears, read: ADPGLO assay, read-out: DGK alpha ADPGLO IC50.
Where [7] appears, read: human whole blood, anti-CD3 plus anti-CD28 stimulation, 24 hours, read-out: IFN-γ Whole Blood EC50.
[8] abbreviates: Homo sapiens, whole blood, normalized to 3 μM reference compound as 100% activation, read-out: IFN-γ Whole Blood Normalized EC50.

human DGKα, sequence (P23743 whole entry, looked up, the tested form may be a part): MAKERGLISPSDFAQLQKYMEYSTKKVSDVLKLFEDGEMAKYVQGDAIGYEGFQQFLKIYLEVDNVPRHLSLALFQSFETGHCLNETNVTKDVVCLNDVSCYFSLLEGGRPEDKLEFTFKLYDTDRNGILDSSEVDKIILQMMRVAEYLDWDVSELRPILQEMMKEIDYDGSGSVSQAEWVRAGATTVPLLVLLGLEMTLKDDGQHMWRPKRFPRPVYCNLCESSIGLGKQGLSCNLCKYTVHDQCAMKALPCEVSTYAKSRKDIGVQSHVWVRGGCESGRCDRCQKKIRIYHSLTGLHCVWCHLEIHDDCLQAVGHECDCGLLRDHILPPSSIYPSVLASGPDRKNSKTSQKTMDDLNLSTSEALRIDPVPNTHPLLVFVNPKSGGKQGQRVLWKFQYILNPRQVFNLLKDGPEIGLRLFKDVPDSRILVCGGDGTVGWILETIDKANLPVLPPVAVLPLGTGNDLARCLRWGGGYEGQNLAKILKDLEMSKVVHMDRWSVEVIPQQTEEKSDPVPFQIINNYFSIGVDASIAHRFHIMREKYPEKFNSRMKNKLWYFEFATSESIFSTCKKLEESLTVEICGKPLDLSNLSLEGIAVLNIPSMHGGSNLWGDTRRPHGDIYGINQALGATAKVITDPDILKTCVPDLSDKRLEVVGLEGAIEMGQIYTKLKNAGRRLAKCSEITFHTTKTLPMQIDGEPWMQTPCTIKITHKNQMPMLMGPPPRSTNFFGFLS
human DGKζ, sequence (Q13574 other isoform, or with tags, fused parts or gaps): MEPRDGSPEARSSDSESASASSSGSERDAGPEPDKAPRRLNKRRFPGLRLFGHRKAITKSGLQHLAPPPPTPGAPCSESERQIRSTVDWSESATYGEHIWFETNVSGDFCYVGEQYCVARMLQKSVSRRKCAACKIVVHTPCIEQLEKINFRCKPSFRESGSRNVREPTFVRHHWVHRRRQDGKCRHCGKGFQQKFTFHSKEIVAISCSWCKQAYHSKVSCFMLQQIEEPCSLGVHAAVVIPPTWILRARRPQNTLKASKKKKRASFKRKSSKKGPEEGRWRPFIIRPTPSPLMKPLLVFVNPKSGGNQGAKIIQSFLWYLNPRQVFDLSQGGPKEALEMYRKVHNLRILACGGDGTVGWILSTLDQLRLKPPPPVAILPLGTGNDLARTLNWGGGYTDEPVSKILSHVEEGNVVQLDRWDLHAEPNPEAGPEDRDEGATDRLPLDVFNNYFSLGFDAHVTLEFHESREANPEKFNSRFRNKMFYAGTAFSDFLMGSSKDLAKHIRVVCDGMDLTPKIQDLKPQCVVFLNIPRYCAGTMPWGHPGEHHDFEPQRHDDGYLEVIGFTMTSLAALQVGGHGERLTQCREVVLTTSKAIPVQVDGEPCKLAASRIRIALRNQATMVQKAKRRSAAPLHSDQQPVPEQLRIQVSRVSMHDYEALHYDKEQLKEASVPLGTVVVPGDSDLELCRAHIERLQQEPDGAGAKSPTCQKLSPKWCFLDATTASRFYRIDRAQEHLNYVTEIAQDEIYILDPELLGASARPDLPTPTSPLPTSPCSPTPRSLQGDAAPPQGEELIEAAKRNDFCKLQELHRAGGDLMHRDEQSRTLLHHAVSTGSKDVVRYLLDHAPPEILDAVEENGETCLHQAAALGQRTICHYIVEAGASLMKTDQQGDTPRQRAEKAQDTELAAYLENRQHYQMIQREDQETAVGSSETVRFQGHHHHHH

For orientation: IC50 means the concentration that gives 50% inhibition. As usually defined, the EC50 is the concentration that produces a half-maximal response. In the case of `[2H]C([2H])([2H])Oc1ccc(C(C)N2C[C@H](CC)N(c3nc(=O)n(C)c4ccc(C#N)nc34)C[C@H]2CC)cc1` (single isomer, unassigned) [Example 191], the IC50 stood at 260 nM on human DGKζ (setting [2]) and 460 nM at human DGKα (setting [3]). Further, the EC50 in experiment [1] (setting [4]) worked out at 290 nM.
In the case of `[2H]C([2H])([2H])Oc1ccc(C(CC)N2C[C@H](CC)N(c3nc(=O)n(C)c4ccc(C#N)nc34)C[C@H]2CC)cc1` (single isomer, unassigned) [Example 208], the half-inhibitory concentration (IC50) on human DGKζ (setting [2]) was 78 nM; at human DGKα (setting [3]) it was 25 nM. Also, the EC50 in experiment [1] (setting [4]) was 17 nM.
Turning to `[2H]C([2H])([2H])Oc1ccc(C(CC)N2C[C@H](CC)N(c3nc(=O)n(C)c4ccc(C#N)nc34)C[C@H]2CC)cc1` (single isomer, unassigned) [Example 209], the IC50 at human DGKζ (setting [2]) was found to be 1030 nM; at human DGKα (setting [3]), 91 nM. Moreover, in experiment [1] (setting [4]), the EC50 amounted to 1280 nM.
For `CC[C@H]1CN(C(C)c2ccc(CN3CCC(OC)CC3)cc2)[C@H](CC)CN1c1nc(=O)n(C)c2ccc(C#N)nc12` (single isomer, unassigned) [Example 273], the IC50 at human DGKζ (setting [2]) was determined as 7330 nM; on human DGKα (setting [3]) it was 1000 nM. Also, the EC50 in experiment [1] (setting [4]) was determined as 420 nM.
Taken in the same sequence, the figures for `CC[C@H]1CN(C(C)c2ccc(CN3CCC(OC)CC3)cc2)[C@H](CC)CN1c1nc(=O)n(C)c2ccc(C#N)nc12` (single isomer, unassigned) [Example 274] were 174000 nM, 16000 nM and 5330 nM.
On to `CC[C@H]1CN(C(c2ccc(F)cc2)c2noc(C3CC3)n2)[C@H](CC)CN1c1nc(=O)n(C)c2ccc(C#N)nc12` (single isomer, unassigned) [Example 372], for which the IC50 came out at 43 nM at human DGKζ (setting [5]) and 4 nM on human DGKα (setting [6]). In experiment [1] (setting [7]), the EC50 is 150 nM.
For the molecule `CC(c1ccc(CN2CCOC(C)(C)C2)cc1)N1C[C@H](C)N(c2nc(=O)n(C)c3ccc(C#N)nc23)C[C@H]1C` (single isomer, unassigned) [Example 386], the IC50 worked out at 5070 nM on human DGKζ (setting [5]) and 2700 nM on human DGKα (setting [6]). The EC50 in experiment [1] (setting [7]) turned out to be 2490 nM.
For `CCC(c1ccc(C(F)(F)F)cc1)N1C[C@H](CC)N(c2nc(=O)n(C)c3ccc(Cl)nc23)C[C@H]1CC` (single isomer, unassigned) [Example 421], the half-maximal inhibitory concentration (IC50) was determined as 320 nM at human DGKζ (setting [5]) and 64 nM on human DGKα (setting [6]). Besides, in experiment [1] (Homo sapiens, 24 h, human whole blood, anti-CD3 plus anti-CD28 stimulation, 24 hours, read-out: IFN-γ Whole Blood EC50), the EC50 turned out to be 190 nM.
In the case of `CC[C@H]1CN(C(C)c2ccc(OC(C)(C)COC)cc2)[C@H](CC)CN1c1nc(=O)n(C)c2ccc(C#N)nc12` (stereo partly drawn) [Example 189], the half-maximal inhibitory concentration (IC50) on human DGKζ (setting [2]) was 17000 nM; on human DGKα (setting [3]) it was 850 nM. Besides, in experiment [1] (setting [4]), the concentration giving a half-maximal response (EC50) was found to be 450 nM.
On the same counts, the results for `CC[C@H]1CN(C(C)c2ccc(C3CC3)nc2)[C@H](CC)CN1c1nc(=O)n(C)c2ccc(C#N)nc12` (stereo partly drawn) [Example 192, 4-((2 S,5R)-4-(1-(6-cyclopropylpyridin-3-yl)ethyl)-2,5-diethylpiperazin-1-yl)-1-methyl-2-oxo-1,2-dihydropyrido[3,2-d]pyrimidine-6-carbonitrile] are 52 nM, 61 nM and 110 nM.
On the same counts, the results for `CC[C@H]1CN(C(C)c2ccc(C3CC3)nc2)[C@H](CC)CN1c1nc(=O)n(C)c2ccc(C#N)nc12` (stereo partly drawn) [Example 193, 4-((2 S,5R)-4-(1-(6-cyclopropylpyridin-3-yl)ethyl)-2,5-diethylpiperazin-1-yl)-1-methyl-2-oxo-1,2-dihydropyrido[3,2-d]pyrimidine-6-carbonitrile] are 1770 nM, 650 nM and 1150 nM.
On the same counts, the results for `CCC(c1ccc(OCC2CC2)cc1F)N1C[C@H](CC)N(c2nc(=O)n(C)c3ccc(C#N)nc23)C[C@H]1CC` (stereo partly drawn) [Example 198, 4-((2S,5R)-4-(1-(4-(cyclopropylmethoxy)-2-fluorophenyl)propyl)-2,5-diethylpiperazin-1-yl)-1-methyl-2-oxo-1,2-dihydropyrido[3,2-d]pyrimidine-6-carbonitrile] are 38 nM, 37 nM and 15 nM.
`CCC(c1ccc(C2CC2)cc1)N1C[C@H](CC)N(c2nc(=O)n(C)c3ccc(C#N)nc23)C[C@H]1CC` (stereo partly drawn) [Example 201, 4-((2S,5R)-4-(1-(4-cyclopropylphenyl)propyl)-2,5-diethylpiperazin-1-yl)-1-methyl-2-oxo-1,2-dihydropyrido[3,2-d]pyrimidine-6-carbonitrile]: the values for the half-maximal inhibitory concentration (IC50) on human DGKζ (setting [2]) and on human DGKα (setting [3]) were 900 nM and 160 nM, respectively. Moreover, the EC50 in experiment [1] (setting [8]) stood at 230 nM.
For the molecule `CC[C@H]1CN(C(C)c2ccc3oc(=O)n(C)c3c2)[C@H](CC)CN1c1nc(=O)n(C)c2ccc(C#N)nc12` (stereo partly drawn) [Example 202, 4-((2S,5R)-2,5-diethyl-4-(1-(3-methyl-2-oxo-2,3-dihydrobenzo[d]oxazol-5-yl)ethyl)piperazin-1-yl)-1-methyl-2-oxo-1,2-dihydropyrido[3,2-d]pyrimidine-6-carbonitrile], the values for the half-inhibitory concentration (IC50) at human DGKζ (setting [2]) and at human DGKα (setting [3]) were 420 nM and 360 nM, respectively. The 50% effective concentration (EC50) in experiment [1] (setting [4]) is 160 nM.
For `CC[C@H]1CN(C(C)c2ccc3oc(=O)n(C)c3c2)[C@H](CC)CN1c1nc(=O)n(C)c2ccc(C#N)nc12` (stereo partly drawn) [Example 203, 4-((2S,5R)-2,5-diethyl-4-(1-(3-methyl-2-oxo-2,3-dihydrobenzo[d]oxazol-5-yl)ethyl)piperazin-1-yl)-1-methyl-2-oxo-1,2-dihydropyrido[3,2-d]pyrimidine-6-carbonitrile], the IC50 came out at 2710 nM at human DGKζ (setting [2]) and 780 nM at human DGKα (setting [3]). Also, the EC50 in experiment [1] (setting [4]) amounted to 2210 nM.
In the case of `CC[C@@H]1CN(c2nc(=O)n(C)c3ccc(C#N)nc23)[C@@H](CC)CN1Cc1ccc(C(F)(F)F)cc1F` [Example 204, 4-((2S,5R)-2,5-diethyl-4-(2-fluoro-4-(trifluoromethyl)benzyl)piperazin-1-yl)-1-methyl-2-oxo-1,2-dihydropyrido[3,2-d]pyrimidine-6-carbonitrile], the IC50 on human DGKζ (setting [2]) was found to be 1410 nM; on human DGKα (setting [3]), 120 nM. The EC50 in experiment [1] (setting [8]) was determined as 410 nM.
On the same counts, the results for `CC[C@@H]1CN(c2nc(=O)n(C)c3ccc(C#N)nc23)[C@@H](CC)CN1Cc1ccc(C(F)(F)F)cc1` [Example 205, 4-((2S,5R)-2,5-diethyl-4-(4-(trifluoromethyl)benzyl)piperazin-1-yl)-1-methyl-2-oxo-1,2-dihydropyrido[3,2-d] pyrimidine-6-carbonitrile] are 3740 nM, 61 nM and 830 nM.
For the molecule `CC[C@H]1CN(C(C)c2cnc(N3CCOCC3)nc2)[C@H](CC)CN1c1nc(=O)n(C)c2ccc(C#N)nc12` (stereo partly drawn) [Example 207, 4-((2S,5R)-2,5-diethyl-4-(1-(2-morpholinopyrimidin-5-yl)ethyl)piperazin-1-yl)-1-methyl-2-oxo-1,2-dihydropyrido[3,2-d] pyrimidine-6-carbonitrile], the figures for the IC50 at human DGKζ (setting [2]) and on human DGKα (setting [3]) were 970 nM and 620 nM, respectively. Also, the EC50 in experiment [1] (setting [4]) turned out to be 1060 nM.
Turning to `CC[C@H]1CN(C(c2ccc(F)cc2)c2csc(C(F)(F)F)n2)[C@H](CC)CN1c1nc(=O)n(C)c2ccc(C#N)nc12` (stereo partly drawn) [Example 210, 4-((2S,5R)-2,5-diethyl-4((4-fluorophenyl)(2-(trifluoromethyl)thiazol-4-yl)methyl)piperazin-1-yl)-1-methyl-2-oxo-1,2-dihydropyrido[3,2-d]pyrimidine-6-carbonitrile], the IC50 amounted to 970 nM on human DGKζ (setting [2]) and 46 nM at human DGKα (setting [3]). Moreover, the EC50 in experiment [1] (setting [8]) came out at 31 nM.
Regarding `CC[C@H]1CN(C(c2ccc(F)cc2)c2csc(C(F)(F)F)n2)[C@H](CC)CN1c1nc(=O)n(C)c2ccc(C#N)nc12` (stereo partly drawn) [Example 211, 4-((2S,5R)-2,5-diethyl-4((4-fluorophenyl)(2-(trifluoromethyl)thiazol-4-yl)methyl)piperazin-1-yl)-1-methyl-2-oxo-1,2-dihydropyrido[3,2-d]pyrimidine-6-carbonitrile], the 50% inhibitory concentration (IC50) at human DGKζ (setting [2]) came to 100 nM; on human DGKα (setting [3]) it was 46 nM. Besides, the EC50 in experiment [1] (setting [4]) amounted to 18 nM.
On the same counts, the results for `CCC(c1ccc(OC)cc1)N1C[C@H](CC)N(c2nc(=O)n(C)c3ccc(C#N)nc23)C[C@H]1CC` (stereo partly drawn) [Example 212, 4-((2S,5R)-2,5-diethyl-4-(1-(4-methoxyphenyl)propyl)piperazin-1-yl)-1-methyl-2-oxo-1,2-dihydropyrido[3,2-d]pyrimidine-6-carbonitrile] are 70 nM, 18 nM and 22 nM.
Taken in the same sequence, the figures for `CCC(c1ccc(OC)cc1)N1C[C@H](CC)N(c2nc(=O)n(C)c3ccc(C#N)nc23)C[C@H]1CC` (stereo partly drawn) [Example 213, 4-((2S,5R)-2,5-diethyl-4-(1-(4-methoxyphenyl)propyl)piperazin-1-yl)-1-methyl-2-oxo-1,2-dihydropyrido[3,2-d]pyrimidine-6-carbonitrile] were 950 nM, 59 nM and 190 nM.
